Here are results for twelve compounds from patent US7601716B2, “Pyridopyrazines and derivatives thereof as ALK and c-Met inhibitors” (Cephalon, Inc., priority 2006, dated 2009).

The target in assay [1] is T1, c-Met (cytoplasmic domain) (Homo sapiens, UniProt P08581).
T1 construct: Reactions were initiated with 30 ng/mL c-Met (cytoplasmic domain, Invitrogen Corporation #PV3143); purchased Invitrogen Corporation PV3143
Description: c-Met Kinase Assay (ELISA/TRF, PLC-γ substrate). Particulars: 3 μM ATP (Km level); read-out: c-Met Kinase Inhibition (IC50). It counts as biochemical. An outline of the steps:
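c-Met cytoplasmic domain (30 ng/mL) phosphorylates plate-coated GST–PLC-γ for 15 min at 37 °C. Phosphotyrosine detected with Eu-labeled PT66 antibody by time-resolved fluorescence. IC50 from variable-slope sigmoidal fit of % inhibition vs log concentration.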

Assay [2] deals with baculovirus-expressed ALK (Homo sapiens, UniProt Q9UM73). Kind of assay: ALK Kinase Assay (ELISA/TRF, PLC-γ substrate). Note: 1 µM ATP (Km level). It counts as biochemical. Particulars: read-out: ALK Kinase Inhibition (IC50). An outline of the steps: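 Plates coated with GST-PLC-γ substrate (10 µg/mL in TBS), then reaction started with 30 ng/ml baculovirus-expressed ALK, 15 min at 37 °C. Phosphotyrosine detected by Eu-labeled PT66 antibody and time-resolved fluorescence. IC50 from variable-slope sigmoidal fit of percent inhibition versus log concentration.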
(In general: An ELISA detects its analyte on a solid surface through an enzyme-linked reagent.)

Sequence of baculovirus-expressed ALK (Q9UM73 19-1620): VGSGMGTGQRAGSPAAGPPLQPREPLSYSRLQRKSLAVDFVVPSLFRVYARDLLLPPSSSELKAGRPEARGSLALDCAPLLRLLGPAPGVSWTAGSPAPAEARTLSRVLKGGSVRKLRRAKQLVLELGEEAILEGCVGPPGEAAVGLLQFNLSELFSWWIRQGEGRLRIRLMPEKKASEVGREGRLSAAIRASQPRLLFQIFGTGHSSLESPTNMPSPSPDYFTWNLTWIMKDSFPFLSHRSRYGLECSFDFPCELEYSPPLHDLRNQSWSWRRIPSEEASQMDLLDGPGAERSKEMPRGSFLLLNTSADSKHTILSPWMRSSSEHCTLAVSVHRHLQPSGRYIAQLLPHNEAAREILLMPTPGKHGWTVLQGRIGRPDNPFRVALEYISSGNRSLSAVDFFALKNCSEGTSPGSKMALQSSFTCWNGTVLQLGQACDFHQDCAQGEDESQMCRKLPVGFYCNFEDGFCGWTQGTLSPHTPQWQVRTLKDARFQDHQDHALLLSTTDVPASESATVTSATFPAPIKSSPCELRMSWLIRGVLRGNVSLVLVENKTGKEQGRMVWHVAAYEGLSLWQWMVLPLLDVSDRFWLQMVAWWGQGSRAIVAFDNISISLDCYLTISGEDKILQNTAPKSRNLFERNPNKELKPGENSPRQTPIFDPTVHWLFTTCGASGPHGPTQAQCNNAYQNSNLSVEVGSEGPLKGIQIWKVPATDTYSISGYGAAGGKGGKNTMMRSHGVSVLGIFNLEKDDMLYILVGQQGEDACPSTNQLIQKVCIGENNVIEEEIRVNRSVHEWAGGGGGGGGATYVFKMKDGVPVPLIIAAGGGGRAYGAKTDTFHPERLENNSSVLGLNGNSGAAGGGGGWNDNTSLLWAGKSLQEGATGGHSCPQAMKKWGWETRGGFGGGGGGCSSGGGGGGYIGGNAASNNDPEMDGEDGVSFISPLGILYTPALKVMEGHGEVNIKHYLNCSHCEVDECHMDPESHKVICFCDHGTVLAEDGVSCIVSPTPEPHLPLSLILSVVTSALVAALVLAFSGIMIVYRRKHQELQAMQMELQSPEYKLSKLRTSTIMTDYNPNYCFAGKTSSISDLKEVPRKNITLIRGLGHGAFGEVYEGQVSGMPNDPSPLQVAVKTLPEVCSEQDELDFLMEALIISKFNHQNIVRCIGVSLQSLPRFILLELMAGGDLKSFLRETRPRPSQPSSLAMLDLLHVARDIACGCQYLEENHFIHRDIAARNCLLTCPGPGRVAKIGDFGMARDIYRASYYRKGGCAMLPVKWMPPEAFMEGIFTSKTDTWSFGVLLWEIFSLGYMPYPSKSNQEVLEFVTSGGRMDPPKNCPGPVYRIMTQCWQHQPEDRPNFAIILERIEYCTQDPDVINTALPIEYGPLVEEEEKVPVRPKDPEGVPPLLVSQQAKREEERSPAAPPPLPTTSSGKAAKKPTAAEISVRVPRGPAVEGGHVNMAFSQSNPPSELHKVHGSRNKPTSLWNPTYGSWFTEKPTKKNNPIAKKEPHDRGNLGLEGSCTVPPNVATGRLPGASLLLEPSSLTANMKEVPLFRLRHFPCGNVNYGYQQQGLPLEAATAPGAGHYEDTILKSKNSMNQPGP
T1 sequence (P08581 956-1390 limits assumed): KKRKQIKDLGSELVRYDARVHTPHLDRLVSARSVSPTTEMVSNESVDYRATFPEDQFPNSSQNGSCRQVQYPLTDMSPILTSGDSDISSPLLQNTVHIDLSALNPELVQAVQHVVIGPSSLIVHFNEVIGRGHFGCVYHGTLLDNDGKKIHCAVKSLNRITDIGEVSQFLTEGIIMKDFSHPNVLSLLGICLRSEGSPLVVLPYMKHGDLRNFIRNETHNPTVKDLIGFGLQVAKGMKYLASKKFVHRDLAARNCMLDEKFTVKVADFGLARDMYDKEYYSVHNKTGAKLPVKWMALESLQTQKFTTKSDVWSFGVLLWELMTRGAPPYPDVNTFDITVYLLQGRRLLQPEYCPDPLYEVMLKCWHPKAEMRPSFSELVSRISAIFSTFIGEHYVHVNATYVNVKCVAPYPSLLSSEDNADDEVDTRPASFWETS

Regarding `CN1CCN(C(=O)c2ccc(-c3cnc4c(c3)C(Oc3cccnc3)CCN4)cc2)CC1` (stereo not drawn) [Example 276, (4-Methylpiperazin-1-yl)-{4-[5-(pyridine-3-yloxy)-5,6,7,8-tetrahydro-[1,8]naphthyridin-3-yl]phenyl}methanone], the half-inhibitory concentration (IC50) in assay [1] and in assay [2] was 10 to 100 µM in each case.

On to `O=C(c1cnc2c(c1)N(Cc1cc(Cl)ccc1Cl)CCN2)N1CCOCC1` [Example 243, [1-(2,5-Dichlorobenzyl)-1,2,3,4-tetrahydropyrido[2,3-b]pyrazin-7-yl]morpholin-4-yl-methanone], for which the half-maximal inhibitory concentration (IC50) in assay [1] and in assay [2] was 10 to 100 µM throughout.

`CC(=O)c1ccc(F)cc1OC1CCNc2ncc(-c3ccc(C(=O)N4CCN(C)CC4)cc3)cc21` (stereo not drawn) [Example 277, 1-(4-Fluoro-2-{6-[4-(4-methylpiperazine-1-carbonyl)phenyl]-1,2,3,4-tetrahydro-[1,8]naphthyridin-4-yloxy}phenyl)ethanone]: the IC50 in assay [1] and in assay [2] was 10 to 100 µM each time.

As for `CC(C)(C)OC(=O)NCC#Cc1cnc2c(c1)N(Cc1c(Cl)cccc1Cl)CCN2` [Example 170, {3-[1-(2,6-Dichlorobenzyl)-1,2,3,4-tetrahydropyrido[2,3-b]pyrazin-7-yl]prop-2-ynyl}carbamic acid tert-butyl ester], the IC50 is more than 100 µM in assay [1] and 1 to 10 µM in assay [2].

As for `O=C(c1cnc2c(c1)N(Cc1cc(Cl)ccc1Cl)CCN2)N1CCN(c2cnccn2)CC1` [Example 241, [1-(2,5-Dichlorobenzyl)-1,2,3,4-tetrahydropyrido[2,3-b]pyrazin-7-yl]-(2,3,5,6-tetrahydro-[1,2′]bipyrazinyl-4-yl)methanone], the IC50 in assay [1] is more than 100 µM; in assay [2] it was 0.1 to 1 µM.

Turning to `O=C(NC(c1ccccc1)c1ccccc1)c1cnc2c(c1)N(Cc1cc(Cl)ccc1Cl)CCN2` [Example 233, 1-(2,5-Dichlorobenzyl)-1,2,3,4-tetrahydropyrido[2,3-b]pyrazine-7-carboxylic acid benzhydrylamide], the IC50 in assay [1] fell in the range of 10 to 100 µM; in assay [2], 1 to 10 µM.

As for `Cc1cc(N2CCN(C(=O)c3cnc4c(c3)N(Cc3cc(Cl)ccc3Cl)CCN4)CC2)c2ccccc2n1` [Example 237, [1-(2,5-Dichlorobenzyl)-1,2,3,4-tetrahydropyrido[2,3-b]pyrazin-7-yl]-[4-(2-methylquinolin-4-yl)piperazin-1-yl]methanone], the IC50 in assay [1] and in assay [2] was 1 to 10 µM each time.

`c1ccc(CN2CCNc3ncccc32)cc1` [Example 32, 1-Benzyl-1,2,3,4-tetrahydropyrido[2,3-b]pyrazine]: the IC50 in assay [1] and in assay [2] was more than 100 µM each time.

Regarding `O=C(NCCOc1ccccc1)c1cnc2c(c1)N(Cc1cc(Cl)ccc1Cl)CCN2` [Example 251, 1-(2,5-Dichlorobenzyl)-1,2,3,4-tetrahydropyrido[2,3-b]pyrazine-7-carboxylic acid (2-phenoxyethyl)amide], the IC50 in assay [1] and in assay [2] was 10 to 100 µM in each case.

Regarding `CN1CCN(Cc2cc(Cl)ccc2Cl)c2cc(I)cnc21` [Example 187, 1-(2,5-Dichlorobenzyl)-7-iodo-4-methyl-1,2,3,4-tetrahydropyrido[2,3-b]pyrazine], the half-inhibitory concentration (IC50) in assay [1] and in assay [2] was more than 100 µM each time.

Consider `O=C(Cc1ccccc1)N1CCNc2ncc(I)cc21` [Example 110, 1-(7-Iodo-3,4-dihydro-2H-pyrido[2,3-b]pyrazin-1-yl)-2-phenylethanone], for which the figures for the IC50 in assay [1] and in assay [2] were 10 to 100 µM and more than 100 µM, respectively.

Regarding `CN1CCN(c2ccc(-c3cnc4c(c3)C(Oc3cccc(Cl)c3)CCN4)cn2)CC1` (stereo not drawn) [Example 281, 4-(3-Chlorophenoxy)-6-[6-(4-methylpiperazin-1-yl)pyridin-3-yl]-1,2,3,4-tetrahydro-[1,8]naphthyridine], the values for the IC50 in assay [1] and in assay [2] were 1 to 10 µM and 0.1 to 1 µM, respectively.

What is called IC50 is the concentration needed to halve the response being measured.
